Measured values as given in article PMC11853379, “Glioblastoma Cell Migration, Invasion and Vasculogenic Mimicry Downmodulated by Novel uPAcyclin Derivatives” (Cells, 2025).
Read-outs that look alike come from different tables or passages of the source. Positions of bridges follow the written chain, without caps; N, C: chain ends. Residues, ends and D or L forms follow the SMILES beside them.

Assays:
U87-MG cells = test: F-actin cytoskeletal rearrangement, rhodamine-phalloidin staining; format: cell-based, human; conditions: 100 nM peptide pre-incubated 40 min 37 °C, then 5% FBS 3 h
Method: The U87-MG cells were analyzed for their cytoskeletal organization upon exposure to the indicated peptides. Briefly, 2 × 10^5 cells/sample were harvested via mild trypsinization, pre-treated for 40 min at 37 °C with 100 nM of selected peptides, and incubated with 5% FBS for 3 h at 37 °C. Samples diluted in a serum-free medium were included as negative controls. Then cells were fixed, permeabilized, and stained with 0.1 μg/mL rhodamine–phalloidin (Sigma-Merck, St. Louis, MO, USA) for 40 min at rt. To stain nuclei, the slides were incubated with 20 ng/mL DAPI (4′,6-Diamidino-2- phenylindole, Sigma-Merck, St. Louis, MO, USA) for 10 min at rt, mounted with Mowiol Mounting Medium (Sigma-Merck, St. Louis, MO, USA), and examined with the DMI6000 Leica Inverted Fluorescence Microscope ([…], Milan, Italy) at 40× magnification. At least 4 fields/samples were acquired, and the total fluorescence was measured with ImageJ.
Figure 5 Representative images of U87-MG cytoskeletal rearrangements. […] F-actin was detected via staining with rhodamine–phalloidin, as specified in the Methods section, using the Leica DMI 6000 Inverted Microscope at 40× magnification. […] In the histogram, the results are expressed as a percentage of total fluorescence intensity in the absence of FBS and peptide (no peptide); ** p-value < 0.005, * p ≤ 0.05.

[1] = target: T1, αV integrin on U251-MG cells (Homo sapiens, UniProt P06756); test: Receptor binding assay: displacement of FITC-uPAcyclin from U251-MG cells; conditions: competition with FITC-uPAcyclin
T1 construct: endogenous in cells; host or cells: U251-MG human glioblastoma cells (acid-treated, 4 °C)
Method: (§1) The U87-MG and U251-MG cell lines were harvested and acid-treated, as described. Briefly, 2 × 10^6 cells/sample were pre-incubated for 30 min at 4 °C with uPAcyclin and Ala peptides and subsequently exposed to 50 nM FITC-uPAcyclin for 2 h at 4 °C, as described. The experiments were performed three times, with duplicate samples, and analyzed as reported in the statistical analysis.
To rule out the possibility that the effects observed may be restricted to a single cell line, testing was extended to the U251-MG cell line, derived from a human glioblastoma with a mesenchymal-like phenotype with a lower proliferative capacity than U87-MG cells. This cell line was analyzed for the ability to specifically bind the FITC-uPAcyclin, in the presence of increasing concentrations of unlabeled [Ala^2,Ala^5]uPAcyclin, together with the parent uPAcyclin and the selected cyclopeptides [Ala^1]uPAcyclin, [Ala^4]uPAcyclin and [Ala^8]uPAcyclin (Figure 4A). In particular, [Ala^1]uPAcyclin and [Ala^8]uPAcyclin were selected for their contrasting affinity/activity observed on U87-MG glioblastoma cells, while [Ala^4]uPAcyclin was chosen to confirm the importance of Ser4 both in binding and in the anti-migratory activity of uPAcyclin.
Figure 4 Binding and biological effect of selected Ala peptides on U251-MG migration and invasion. […]

U251-MG cells = format: cell-based, human
Method: The migration and invasion assays were performed with Boyden chambers, according to De Vincenzo et al., using 11 × 10^4 U87-MG and U251-MG glioblastoma cells/sample pre-treated for 40 min at 37 °C with the indicated effectors and then allowed to migrate for 3 h or to invade for 5 h at 37 °C toward 5% FBS in DMEM/0.1% BSA. The migrated or invaded cells were reported as a percentage of basal random migration or invasion and analyzed as reported in the Statistical Analyses section. The migration and invasion experiments were conducted in triplicate.
Figure 4 Binding and biological effect of selected Ala peptides on U251-MG migration and invasion. (A) A binding assay was performed using U251-MG cells, as described in the legend of Figure 1. (B) The directional migration toward 10% FBS of U251-MG cells was performed in Boyden chambers, in the presence of the indicated peptides, as described in the legend of Figure 1. (C) An invasion assay was performed toward 5% FBS of U251-MG cells in Boyden chambers, in the presence of the indicated peptides. For all migration and invasion assays, the p-values are ≤0.001, apart from [Ala^1]uPAcyclin with a p ≤ 0.05.

[2] = target: T2, integrin αV receptors on the GBM cell surface (U87-MG cells) (Homo sapiens, UniProt P06756); test: Receptor binding assay: displacement of FITC-uPAcyclin from U87-MG living cells
T2 construct: endogenous in cells; host or cells: U87-MG human glioblastoma cells (living, acid-treated, 4 °C)
Method: as §1
This assay confirmed that FITC-uPAcyclin binds specifically to both GBM cell lines and to the HEK-293/αV, whereas little interaction is detected with HEK-293 cells (Supporting Information, Table S7). […] To investigate the ability of novel Ala-scan peptides to compete with uPAcyclin for binding to integrin αV receptors on the GBM cell surface, the specific interaction of FITC-conjugated uPAcyclin with U87-MG living cells was tested via a receptor binding assay. U87-MG GBM cells were pre-incubated with increasing concentrations of unlabeled Ala peptides and then exposed to FITC-uPAcyclin (Figure 1A). […] When considering the relative Kdapp of uPAcyclin variants, it can be inferred that the replacement either of each of the three prolines (Pro^2, Pro^5, Pro^6) or Lys^1 increases the binding affinity of the resulting peptide compared to uPAcyclin. In contrast, the Ala mutation of other residues is detrimental to the peptide binding affinity.
Figure 1 Binding of Ala peptides to U87-MG cells and effect of uPAcyclin and Ala peptides on U87-MG cellular migration. (A) A total of 2 × 10^6 U87-MG cells were pre-incubated for 30 min at 4 °C with increasing concentrations of unlabeled uPAcyclin and Ala peptides and then exposed to 50 nM of FITC-uPAcyclin for 2 h at 4 °C. Cell surface-associated fluorescence, as percentage of the sample with […], is shown. Experiments were carried out in duplicate, and the data shown here are representative of three independent experiments. (B) 11 × 10^4 U87-MG cells/sample were pre-treated for 40 min at 37 °C with increasing concentrations of uPAcyclin or the indicated Ala peptides and then assayed in Boyden chambers for 5% FBS-dependent migration for 3 h at 37 °C. At the end of incubation, the filters were processed as described in the Methods section. For clarity here and in the following Figures, Ala-x indicates the peptide with substituted x-position. For both assays, the p-values are in the range of 0.005 ≤ p ≤ 0.001, apart from [Ala1]uPAcyclin in the migration assay with p ≤ 0.05.

T2 sequence (P06756 31-889 limits assumed): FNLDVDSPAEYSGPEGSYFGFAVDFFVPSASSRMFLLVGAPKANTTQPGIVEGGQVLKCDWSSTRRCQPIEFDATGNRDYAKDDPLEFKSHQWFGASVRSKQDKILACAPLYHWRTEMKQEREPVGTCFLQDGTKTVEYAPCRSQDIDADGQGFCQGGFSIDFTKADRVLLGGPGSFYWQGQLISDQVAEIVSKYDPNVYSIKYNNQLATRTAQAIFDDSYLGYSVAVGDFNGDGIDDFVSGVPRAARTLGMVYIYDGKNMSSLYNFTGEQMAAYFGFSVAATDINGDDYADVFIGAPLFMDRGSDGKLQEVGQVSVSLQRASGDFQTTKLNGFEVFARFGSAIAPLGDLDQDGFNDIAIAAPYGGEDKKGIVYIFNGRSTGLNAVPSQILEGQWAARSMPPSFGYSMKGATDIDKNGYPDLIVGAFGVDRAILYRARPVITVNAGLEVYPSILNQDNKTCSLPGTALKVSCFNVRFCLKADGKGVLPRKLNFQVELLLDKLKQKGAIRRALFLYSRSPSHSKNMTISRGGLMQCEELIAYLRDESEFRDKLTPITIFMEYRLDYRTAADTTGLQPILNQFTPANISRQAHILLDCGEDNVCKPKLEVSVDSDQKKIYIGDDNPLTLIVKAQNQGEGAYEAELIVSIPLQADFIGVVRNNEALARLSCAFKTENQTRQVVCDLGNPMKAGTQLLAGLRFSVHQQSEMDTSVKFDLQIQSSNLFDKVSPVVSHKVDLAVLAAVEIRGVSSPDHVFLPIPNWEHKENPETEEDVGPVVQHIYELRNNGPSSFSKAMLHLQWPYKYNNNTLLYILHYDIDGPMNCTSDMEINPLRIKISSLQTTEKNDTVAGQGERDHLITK
T2 sequence (P06756 891-1048 limits assumed): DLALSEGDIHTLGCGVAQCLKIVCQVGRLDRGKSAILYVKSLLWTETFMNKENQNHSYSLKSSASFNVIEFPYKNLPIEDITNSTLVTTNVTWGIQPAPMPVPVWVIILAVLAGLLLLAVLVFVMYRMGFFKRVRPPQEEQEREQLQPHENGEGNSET
T1 sequence (P06756 31-889 limits assumed): as the sequence (P06756 31-889 limits assumed) above
T1 sequence (P06756 891-1048 limits assumed): as the sequence (P06756 891-1048 limits assumed) above

SMILES | reduction in total F-actin fluorescence (inhibition of cytoskeletal rearrangements) (U87-MG cells) | binding to U251-MG cells (in words) [1] | IC50 (U251-MG cells; 3 h) | IC50 (U251-MG cells; 5 h) | binding affinity compared to uPAcyclin (in words) ([2]; displacement of FITC-uPAcyclin, U87-MG cells) | inhibition of invasion (in words) (U251-MG cells; U251-MG) | inhibition of migration (in words) (U251-MG cells; U251-MG) | Kd ([2]; competition with 50 nM FITC-uPAcyclin, 2 × 10^6 U87-MG cells, pre-incubation 30 min 4 °C, then 2 h 4 °C, three experiments in duplicate, read-out: Kdapp)
CC(=O)N[C@@H](CCCCN)C(=O)N[C@@H](C)C(=O)N[C@H]1CCC(=O)NCCCC[C@@H](C(N)=O)NC(=O)[C@H](CC(C)C)NC(=O)[C@H](CCC(=O)O)NC(=O)[C@H](CCC(=O)O)NC(=O)[C@@H]2CCCN2C(=O)[C@H](C)NC(=O)[C@H](CO)NC1=O [[Ala^2,Ala^5]uPAcyclin] (Ac-KAESAPEELK-NH2; lactam 3-10) | 50% | binds with the highest affinity | < 0.001 nM | < 0.001 nM |  |  |  | 
CC(=O)N[C@@H](CCCCN)C(=O)N1CCC[C@H]1C(=O)N[C@H]1CCC(=O)NCCCC[C@@H](C(N)=O)NC(=O)[C@H](CC(C)C)NC(=O)[C@H](C)NC(=O)[C@H](CCC(=O)O)NC(=O)[C@@H]2CCCN2C(=O)[C@@H]2CCCN2C(=O)[C@H](CO)NC1=O [[Ala^8]uPAcyclin] (Ac-KPESPPEALK-NH2; lactam 3-10) |  |  |  |  | reduced affinity | most active among the Ala variants | most active among the Ala variants | 
CC(=O)N[C@@H](CCCCN)C(=O)N1CCC[C@H]1C(=O)N[C@H]1CCC(=O)NCCCC[C@@H](C(N)=O)NC(=O)[C@H](CC(C)C)NC(=O)[C@H](CCC(=O)O)NC(=O)[C@H](CCC(=O)O)NC(=O)[C@@H]2CCCN2C(=O)[C@@H]2CCCN2C(=O)[C@H](CO)NC1=O [uPAcyclin] (Ac-KPESPPEELK-NH2; lactam 3-10) | 35% | dose-dependent decrease in cell-associated fluorescence |  |  |  |  |  | ~0.1 nM
